Source: patent US20240190880A1 (THE REGENTS OF THE UNIVERSITY OF MICHIGAN, priority 2021, published 2024)

molecular target: T1, ER (Homo sapiens, UniProt P03372); test: ER degradation activity, in-cell western blot analysis in T47D cells; type: cell-based; conditions: 16 hours, Table A does not say which cell line (T47D or MCF7), read-out: Potency (DC50)
T1 construct: host or cells: T47D and MCF7 human breast cancer cells
T1 sequence (P03372 1-595): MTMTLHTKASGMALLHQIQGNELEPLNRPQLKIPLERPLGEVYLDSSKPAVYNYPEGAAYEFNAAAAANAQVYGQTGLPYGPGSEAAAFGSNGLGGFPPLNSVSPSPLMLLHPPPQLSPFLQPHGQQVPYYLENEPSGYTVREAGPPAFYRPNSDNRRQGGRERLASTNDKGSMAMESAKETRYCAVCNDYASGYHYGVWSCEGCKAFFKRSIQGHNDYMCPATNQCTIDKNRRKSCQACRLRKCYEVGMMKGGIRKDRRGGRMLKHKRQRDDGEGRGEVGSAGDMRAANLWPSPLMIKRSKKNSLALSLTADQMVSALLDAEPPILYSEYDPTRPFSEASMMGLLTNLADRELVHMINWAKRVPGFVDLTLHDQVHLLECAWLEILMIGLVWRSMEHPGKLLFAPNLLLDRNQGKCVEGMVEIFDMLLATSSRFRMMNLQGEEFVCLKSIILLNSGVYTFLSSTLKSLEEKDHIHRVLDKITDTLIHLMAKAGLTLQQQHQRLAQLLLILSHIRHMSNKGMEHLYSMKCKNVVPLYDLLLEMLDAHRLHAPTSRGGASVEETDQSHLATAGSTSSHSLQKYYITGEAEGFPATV
Protocol: ER degradation activity was evaluated in the human breast cancer cell line T47D and MCF7 purchased from the American Type Culture Collection (ATCC), Manassas, VA, and maintained and cultured in Dulbecco's Modified Eagle's medium (DMEM) containing 10% fetal bovine serum, 1 unit/ml of penicillin and 1 μg/ml of streptomycin.
The protocol for the in-cell western blot analysis: a. seed cells in black-sided/clear bottom 96- or 384-well plates at 40,000 or 10,000 cells/well, overnight; b. add diluted compounds (final 0.5% DMSO), 16 hours. […] RT 2 h, gentle shaking. Negative control: cells plus secondary antibodies (no primary antibodies); e. wash ×4 with PBS+0.05-0.1% Tween 20, gentel shaking; f. anti-rabbit-680 and anti-mouse-800 (both 1:1000 in LiCor block+0.05% Tween20, RT 1 h, gentle shaking, no light. LI-COR: 0.2% to reduce background; g. wash×4 with PBS+0.05% Tween 20, gental shaking; h. add 100 μL or 25 μL of PBS to each well and read on CLX plate reader. The relative ER percentage in treated cells were obtained by comparing the values of treated wells to those in untreated and DMSO-treated wells as 100%.

| SMILES | DC50 [nM] |
| --- | --- |
| C[C@@H]1Cc2c([nH]c3ccccc23)[C@@H](c2c(F)cc(N3CCC(N4CCC(N5Cc6cc7c(cc6C5)C(=O)N(C5CCC(=O)NC5=O)C7=O)CC4)CC3)cc2F)N1CC(F)F (stereo partly drawn) [E 87, 6-(1′-(4-((1R,3R)-2-(2,2-difluoroethyl)-3-methyl-2,3,4,9-tetrahydro-1H-pyrido[3-4-b]indol-1-yl)-3,5-difluorophenyl)-[1,4′-bipiperidin]-4-yl)-2-(2,6-dioxopiperidin-3-yl)-6,7-dihydropyrrolo[3,4-f]isoindole-1,3(2H,5H)-dione] | > 100 |
| C[C@@H]1Cc2c([nH]c3ccccc23)[C@@H](c2cnc(N3CCC4(CC3)CN(C(=O)CN3Cc5cc6c(cc5C3)C(=O)N(C3CCC(=O)NC3=O)C6=O)C4)nc2)N1CC(F)(F)F (stereo partly drawn) [E 255, 2-(2,6-dioxopiperidin-3-yl)-6-(2-(7-(5-((1R,3R)-3-methyl-2-(2,2,2-trifluoroethyl)-2,3,4,9-tetrahydro-1H-pyrido[3,4-b]indol-1-yl)pyrimidin-2-yl)-2,7-diazaspiro[3.5]nonan-2-yl)-2-oxoethyl)-6,7-dihydropyrrolo[3,4-f]isoindole-1,3(2H,5H)-dione] | < 10 |
| O=C1CCC(N2C(=O)c3cc4c(cc3C2=O)CN(CC(=O)N2CCC3(CC2)CCN(c2ccc(C(=C(CCCl)c5ccccc5)c5ccc(B(O)O)cc5)cc2)CC3)C4)C(=O)N1 (stereo not drawn) [E 197, (4-(4-chloro-1-(4-(9-(2-(6-(2,6-dioxopiperidin-3-yl)-5,7-dioxo-3,5,6,7-tetrahydropyrrolo[3,4-f]isoindol-2(1H)-yl)acetyl)-3,9-diazaspiro[5.5]undecan-3-yl)phenyl)-2-phenylbut-1-en-1-yl)phenyl)boronic acid] | 10 to 100 |
| O=C1CCC(N2C(=O)c3cc4c(cc3C2=O)CN(CC2(F)CCN(CC3CN(c5ccc([C@@H]6c7ccc(O)cc7CC[C@@H]6c6ccccc6)cc5)C3)CC2)C4)C(=O)N1 (stereo partly drawn) [E245, 2-(2,6-dioxopiperidin-3-yl)-6-((4-fluoro-1-((1-(4-((1R,2S)-6-hydroxy-2-phenyl-1,2,3,4-tetrahydronaphthalen-1-yl)phenyl)azetidin-3-yl)methyl)piperidin-4-yl)methyl)-6,7-dihydropyrrolo[3,4-f]isoindole-1,3(2H,5H)-dione] | > 100 |
| O=C1CCC(N2C(=O)c3cc4c(cc3C2=O)CN([C@H]2CC[C@H](C(=O)N3CC(Nc5ccc([C@H]6c7ccc(O)cc7CC[C@H]6c6ccccc6)cc5)C3)CC2)C4)C(=O)N1 (stereo partly drawn) [E 387, 2-(2,6-dioxopiperidin-3-yl)-6-((1S,4r)-4-(3-((4-((1S,2R)-6-hydroxy-2-phenyl-1,2,3,4-tetrahydronaphthalen-1-yl)phenyl)amino)azetidine-1-carbonyl)cyclohexyl)-6,7-dihydropyrrolo[3,4-f]isoindole-1,3(2H,5H)-dione] | < 10 |
| C[C@@H]1Cc2c([nH]c3ccccc23)[C@@H](c2c(F)cc(N3CCC(CN4CCC(N5Cc6cc7c(cc6C5)C(=O)N(C5CCC(=O)NC5=O)C7=O)C4)CC3)cc2F)N1CC(F)F (stereo partly drawn) [E 129, 6-(1-((1-(4-((1R,3R)-2-(2,2-difluoroethyl)-3-methyl-2,3,4,9-tetrahydro-1H-pyrido[3,4-b]indol-1-yl)-3,5-difluorophenyl)piperidin-4-yl)methyl)pyrrolidin-3-yl)-2-(2,6-dioxopiperidin-3-yl)-6,7-dihydropyrrolo[3,4-f]isoindole-1,3(2H,5H)-dione] | < 10 |
| O=C1CCC(N2C(=O)c3cc4c(cc3C2=O)CN(C2CCN(CC3CCN(c5ccc([C@@H]6c7ccc(O)cc7CC[C@@H]6c6ccc(F)cc6)cc5)CC3)CC2)C4)C(=O)N1 (stereo partly drawn) [E 273, 2-(2,6-dioxopiperidin-3-yl)-6-(1-((1-(4-((1R,2S)-2-(4-fluorophenyl)-6-hydroxy-1,2,3,4-tetrahydronaphthalen-1-yl)phenyl)piperidin-4-yl)methyl)piperidin-4-yl)-6,7-dihydropyrrolo[3,4-f]isoindole-1,3(2H,5H)-dione] | 10 to 100 |
| C[C@@H]1Cc2c([nH]c3ccccc23)[C@@H](c2c(F)cc(N3CC4(CCN(CC(=O)N5Cc6cc7c(cc6C5)C(=O)N(C5CCC(=O)NC5=O)C7)C4)C3)cc2F)N1CC(F)F (stereo partly drawn) [E 73, 3-(6-(2-(2-(4-((1R,3R)-2-(2,2-difluoroethyl)-3-methyl-2,3,4,9-tetrahydro-1H-pyrido[3,4-b]indol-1-yl)-3,5-difluorophenyl)-2,6-diazaspiro[3.4]octan-6-yl)acetyl)-1-oxo-3,5,6,7-tetrahydropyrrolo[3,4-f]isoindol-2(1H)-yl)piperidine-2,6-dione] | < 10 |
| C[C@@H]1Cc2cc(O)ccc2[C@@H](c2ccc(C3CCC(C(=O)N4CCC(N5Cc6cc7c(cc6C5)C(=O)N(C5CCC(=O)NC5=O)C7=O)CC4)CC3)cc2F)N1CC(F)F (stereo partly drawn) [E 317, 6-(1-(4-(4-((1S,3R)-2-(2,2-difluoroethyl)-6-hydroxy-3-methyl-1,2,3,4-tetrahydroisoquinolin-1-yl)-3-fluorophenyl)cyclohexane-1-carbonyl)piperidin-4-yl)-2-(2,6-dioxopiperidin-3-yl)-6,7-dihydropyrrolo[3,4-f]isoindole-1,3(2H,5H)-dione] | 10 to 100 |
| C[C@@H]1Cc2c([nH]c3ccccc23)[C@@H](c2c(F)cc(N3CCC(CN4CCC5(CC4)CC(N4Cc6cc7c(cc6C4)C(=O)N(C4CCC(=O)NC4=O)C7=O)C5)CC3)cc2F)N1CC(F)F (stereo partly drawn) [E 132, 6-(7-((1-(4-((1R,3R)-2-(2,2-difluoroethyl)-3-methyl-2,3,4,9-tetrahydro-1H-pyrido[3,4-b]indol-1-yl)-3,5-difluorophenyl)piperidin-4-yl)methyl)-7-azaspiro[3.5]nonan-2-yl)-2-(2,6-dioxopiperidin-3-yl)-6,7-dihydropyrrolo[3,4-f]isoindole-1,3(2H,5H)-dione] | 10 to 100 |
| O=C1CCC(N2C(=O)c3cc4c(cc3C2=O)CN(C(=O)CN2CCC[C@H](Oc3ccc([C@@H]5c6ccc(O)cc6CC[C@@H]5c5ccc(F)cc5)cc3)C2)C4)C(=O)N1 (mixture of isomers) [E 159, Rac-2-(2,6-dioxopiperidin-3-yl)-6-(2-((S)-3-(4-((1R,2S)-2-(4-fluorophenyl)-6-hydroxy-1,2,3,4-tetrahydronaphthalen-1-yl)phenoxy)piperidin-1-yl)acetyl)-6,7-dihydropyrrolo[3,4-f]isoindole-1,3(2H,5H)-dione] | > 100 |

same assay, conditions: compounds 16 hours, Table A does not say whether T47D or MCF7, read-out: Potency (DC50)

| SMILES | DC50 [nM] |
| --- | --- |
| C[C@@H]1Cc2cc(O)ccc2[C@@H](c2c(F)cc(C(=O)N3CC4(CCC(CN5Cc6cc7c(cc6C5)C(=O)N(C5CCC(=O)NC5=O)C7=O)CC4)C3)cc2F)N1CC(F)F (stereo partly drawn) [E 464, 6-((2-(4-((1S,3R)-2-(2,2-difluoroethyl)-6-hydroxy-3-methyl-1,2,3,4-tetrahydroisoquinolin-1-yl)-3,5-difluorobenzoyl)-2-azaspiro[3.5]nonan-7-yl)methyl)-2-(2,6-dioxopiperidin-3-yl)-6,7-dihydropyrrolo[3,4-f]isoindole-1,3(2H,5H)-dione] | > 100 |
| O=C1CCC(N2C(=O)c3cc4c(cc3C2=O)CN(C2CC3CCC(C2)N3CC2CCN(c3ccc([C@@H]5c6ccc(O)cc6CC[C@@H]5c5ccccc5)cc3)CC2)C4)C(=O)N1 (stereo partly drawn) [E 497, 2-(2,6-dioxopiperidin-3-yl)-6-(8-((1-(4-((1R,2S)-6-hydroxy-2-phenyl-1,2,3,4-tetrahydronaphthalen-1-yl)phenyl)piperidin-4-yl)methyl)-8-azabicyclo[3.2.1]octan-3-yl)-6,7-dihydropyrrolo[3,4-f]isoindole-1,3(2H,5H)-dione] | > 100 |
| C[C@@H]1Cc2cc(O)ccc2[C@@H](c2c(F)cc(C(=O)N3CCC4(CC3)CC(CN3Cc5cc6c(cc5C3)C(=O)N(C3CCC(=O)NC3=O)C6=O)C4)cc2F)N1CC(F)F (stereo partly drawn) [E 465, 6-((7-(4-((1S,3R)-2-(2,2-difluoroethyl)-6-hydroxy-3-methyl-1,2,3,4-tetrahydroisoquinolin-1-yl)-3,5-difluorobenzoyl)-7-azaspiro[3.5]nonan-2-yl)methyl)-2-(2,6-dioxopiperidin-3-yl)-6,7-dihydropyrrolo[3,4-f]isoindole-1,3(2H,5H)-dione] | > 100 |
| O=C1CCC(N2C(=O)c3cc4c(cc3C2=O)CN(CC(=O)N2CCC3(CC2)CCN(c2ccc([C@H]5c6ccc(O)cc6CC[C@H]5c5ccccc5)cc2)CC3)C4)C(=O)N1 (stereo partly drawn) [E 437, 2-(2,6-dioxopiperidin-3-yl)-6-(2-(9-(4-((1S,2R)-6-hydroxy-2-phenyl-1,2,3,4-tetrahydronaphthalen-1-yl)phenyl)-3,9-diazaspiro[5.5]undecan-3-yl)-2-oxoethyl)-6,7-dihydropyrrolo[3,4-f]isoindole-1,3(2H,5H)-dione] | > 100 |
